How the values were obtained:
[1] = target: GDP-bound NRAS wild-type protein (Homo sapiens, UniProt P01111); assay: Binding to NRAS by surface plasmon resonance (SPR), Single Cycle Kinetics; conditions: for NRAS/KRAS (ratio of KD value with respect to GDP-bound NRAS wild-type protein to KD value with respect to KRAS): SPR KD ratio NRAS/KRAS, class symbols; for NRAS/KRAS (ratio of KD value for NRAS to KD value for KRAS): SPR, GDP-bound NRAS wild-type protein vs GDP-bound KRAS wild-type protein
[2] = target: GDP-bound HRAS wild-type protein (Homo sapiens, UniProt P01112); assay: Binding to HRAS by surface plasmon resonance (SPR), Single Cycle Kinetics; conditions: for HRAS/KRAS (ratio of KD value with respect to GDP-bound HRAS wild-type protein to KD value with respect to KRAS): SPR KD ratio HRAS/KRAS, class symbols; for HRAS/KRAS (ratio of KD value for HRAS to KD value for KRAS): SPR, GDP-bound HRAS wild-type protein vs GDP-bound KRAS wild-type protein
GDP-bound HRAS wild-type protein, sequence (P01112 whole entry): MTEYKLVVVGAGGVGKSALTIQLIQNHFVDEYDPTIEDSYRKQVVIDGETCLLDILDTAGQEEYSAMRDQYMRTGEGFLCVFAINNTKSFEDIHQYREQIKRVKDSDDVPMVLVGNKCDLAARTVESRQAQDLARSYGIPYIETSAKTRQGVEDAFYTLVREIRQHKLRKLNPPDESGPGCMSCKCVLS

GDP-bound NRAS wild-type protein, sequence (P01111 whole entry): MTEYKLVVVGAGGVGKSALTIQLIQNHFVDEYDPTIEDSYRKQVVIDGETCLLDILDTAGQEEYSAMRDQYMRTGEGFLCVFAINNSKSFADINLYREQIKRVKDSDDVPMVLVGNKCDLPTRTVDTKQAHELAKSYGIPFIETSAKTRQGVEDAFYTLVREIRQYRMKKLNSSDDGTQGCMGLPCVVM

| Structure (SMILES) | NRAS/KRAS (ratio of KD value with respect to GDP-bound NRAS wild-type protein to KD value with respect to KRAS) [1] | HRAS/KRAS (ratio of KD value with respect to GDP-bound HRAS wild-type protein to KD value with respect to KRAS) [2] | NRAS/KRAS (ratio of KD value for NRAS to KD value for KRAS) [1] | HRAS/KRAS (ratio of KD value for HRAS to KD value for KRAS) [2] |
| --- | --- | --- | --- | --- |
| CCCC[C@H]1C(=O)N[C@@H]([C@@H](C)CC)C(=O)N(C)CC(=O)N(C)[C@H]2C/C=C\CCN(C2=O)[C@@H](Cc2ccc(C(F)(F)F)cc2)C(=O)N(C)CC(=O)N[C@@H](CCc2ccc(C(F)(F)F)c(Cl)c2)C(=O)N2C[C@H](OCC)C[C@H]2C(=O)NC2(CCC2)C(=O)N(C)[C@@H](C2CCCC2)C(=O)N(C)[C@H](C(=O)N(C)CC)CC(=O)N1C [PP2841] | A (a compound having 10 or more and less than 20 is denoted as A) | A (a compound having 10 or more and less than 20 is denoted as A) | – | – |
| CCO[C@@H]1C[C@H]2C(=O)NC3(CC(C)(C)C3)C(=O)N(C)[C@@H](C(CC)CC)C(=O)N(C)[C@H](C(=O)N(C)C)CC(=O)N(C)[C@@H](CC(C)C)C(=O)N[C@@H]([C@@H](C)CC)C(=O)N(C)CC(=O)N(C)[C@H]3C/C=C\CCN(C3=O)[C@@H](Cc3ccc(C)cc3)C(=O)N(C)CC(=O)N[C@@H](CCc3ccc(C(F)(F)F)c(Cl)c3)C(=O)N2C1 [PP2148] | – | – | A (a compound having 10 or more and less than 20 is denoted as A) | A (a compound having 10 or more and less than 20 is denoted as A) |
| CCO[C@@H]1C[C@H]2C(=O)NC3(CCC3)C(=O)N(C)[C@@H](C3CCCC3)C(=O)N(C)[C@H](C(=O)N(C)C)CC(=O)N(C)[C@@H](CC)C(=O)N[C@@H]([C@@H](C)CC)C(=O)N3CC[C@@H]3C(=O)N(C)[C@H]3C/C=C\CCN(C3=O)[C@@H](Cc3ccc(C(F)(F)F)cc3)C(=O)N(C)CC(=O)N[C@@H](CCc3cc(F)c(C(F)(F)F)c(F)c3)C(=O)N2C1 [PP1064] | – | – | A (a compound having 10 or more and less than 20 is denoted as A) | A (a compound having 10 or more and less than 20 is denoted as A) |
| CC[C@H](C)[C@@H]1NC(=O)[C@H](CC(C)C)N(C)C(=O)C[C@@H](C(=O)N2CCOCC2)N(C)C(=O)[C@H](C2CCCC2)N(C)C(=O)C2(CCC2)NC(=O)[C@@H]2C[C@@H](OCCC(F)(F)F)CN2C(=O)[C@H](CCc2cc(F)c(C(F)(F)F)c(F)c2)NC(=O)CN(C)C(=O)[C@H](Cc2ccc(C(F)(F)F)cc2)N2CCCC[C@@H](C2=O)N(C)C(=O)CN(C)C1=O (stereo in doubt) [PP0998] | – | – | B (a compound having 3 or more and less than 10 is denoted as B) | B (a compound having 3 or more and less than 10 is denoted as B) |
| CCO[C@@H]1C[C@H]2C(=O)NC3(CC(C)(C)C3)C(=O)N(C)[C@@H](C(CC)CC)C(=O)N(C)[C@H](C(=O)N(C)C)CC(=O)N(C)[C@H]3CC/C=C/c4ccc(cc4)C[C@@H](C(=O)N(C)CC(=O)N[C@@H](CCc4ccc(Cl)c(Cl)c4)C(=O)N2C1)N1CC/C=C\C[C@@H](C1=O)N(C)C(=O)CN(C)C(=O)[C@H]([C@@H](C)CC)NC3=O [PP2589] | AA (a compound having 20 or more is denoted as AA) | A (a compound having 10 or more and less than 20 is denoted as A) | – | – |
| CCCOC[C@H]1C(=O)N[C@@H]([C@@H](C)CC)C(=O)N(C)CC(=O)N(C)[C@H]2C/C=C\CCN(C2=O)[C@@H](Cc2ccc(C)cc2)C(=O)N(C)CC(=O)N[C@@H](CCc2cc(F)c(C(F)(F)F)c(F)c2)C(=O)N2C[C@H](CC)C[C@H]2C(=O)NC2(CCCC2)C(=O)N(C)[C@@H](C2CCCC2)C(=O)N(C)[C@H](C(=O)N(C)C)CC(=O)N1C [PP2218] | – | – | A (a compound having 10 or more and less than 20 is denoted as A) | A (a compound having 10 or more and less than 20 is denoted as A) |
| CCC[C@H]1C(=O)N[C@@H]([C@@H](C)CC)C(=O)N(C2CC2)CC(=O)N(C)[C@H]2C/C=C\CCN(C2=O)[C@@H](Cc2ccc(C)cc2)C(=O)N(C)CC(=O)N[C@@H](CCc2ccc(C3CC3)c(Cl)c2)C(=O)N2C[C@H](OCC)C[C@H]2C(=O)NC2(CC(C)(C)C2)C(=O)N(C)[C@@H](C2CCCC2)C(=O)N(C)[C@H](C(=O)N(C)C)CC(=O)N1C [PP2885] | A (a compound having 10 or more and less than 20 is denoted as A) | A (a compound having 10 or more and less than 20 is denoted as A) | – | – |
| CCCCO[C@@H]1C[C@H]2C(=O)NC3(CCC3)C(=O)N(C)[C@@H](C3CCCC3)C(=O)N(C)[C@H](C(=O)N3CCOCC3)CC(=O)N(C)[C@@H](CC(C)C)C(=O)N[C@@H]([C@@H](C)CC)C(=O)N(C)CC(=O)N(C)[C@H]3CCCCN(C3=O)[C@@H](Cc3ccc(C(F)(F)F)cc3)C(=O)N(C)CC(=O)N[C@@H](CCc3cc(F)c(C(F)(F)F)c(F)c3)C(=O)N2C1 [PP1013] | – | – | C (A compound having a KD ratio of 0.1 or more and less than 3 is denoted as C) | C (A compound having a KD ratio of 0.1 or more and less than 3 is denoted as C) |

Source: US20240158446A1, “CYCLIC COMPOUND HAVING SELECTIVE INHIBITORY ACTION ON KRAS OVER HRAS AND NRAS” (CHUGAI SEIYAKU KABUSHIKI KAISHA, priority 2021, published 2024)
